target: T1, PD-1/PD-L1 protein/protein interaction (Homo sapiens, UniProt Q9NZQ7); assay: PD-1/PD-L1 homogenous time-resolved fluorescence (HTRF) binding assay
T1 construct: Recombinant human PD-L1 protein (19-238) with a His-tag at the C-terminus; purchased AcroBiosystems PD1-H5229 (PD-L1); PD1-H5257 (PD-1)
Method: Resolved Fluorescence (HTRF) Binding Assay
The assays were conducted in a standard black 384-well polystyrene plate with a final volume of […]. Inhibitors were first serially diluted in DMSO and then added to the plate wells before the addition of other reaction components. The final concentration of DMSO in the assay was 1%. The assays were carried out at 25° C. in the PBS buffer (pH 7.4) with 0.05% Tween-20 and 0.1% BSA. […] Plates were centrifuged and proteins were preincubated with inhibitors for 40 min. The incubation was followed by the addition of 10 μL of HTRF detection buffer supplemented with Europium cryptate-labeled anti-human IgG (PerkinElmer-AD0212) specific for Fc and anti-His antibody conjugated to SureLight®—Allophycocyanin (APC, PerkinElmer-AD0059H). After centrifugation, the plate was incubated at 25° C. for 60 min. […] Final concentrations in the assay were […] PD1, 10 nM PD-L1, 1 nM europium anti-human IgG and 20 nM anti-His-Allophycocyanin. IC50 determination was performed by fitting the curve of percent control activity versus the log of the inhibitor concentration using the GraphPad Prism 5.0 software.

T1 sequence (Q9NZQ7 19-238): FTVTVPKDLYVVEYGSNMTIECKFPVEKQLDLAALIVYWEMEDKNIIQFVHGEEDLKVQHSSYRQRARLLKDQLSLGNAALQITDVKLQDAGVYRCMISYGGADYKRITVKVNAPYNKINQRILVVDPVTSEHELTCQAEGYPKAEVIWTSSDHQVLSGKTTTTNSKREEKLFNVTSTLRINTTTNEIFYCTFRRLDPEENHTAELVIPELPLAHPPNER

IC50, > 0.15 µM:
Cc1c(Nc2nccc3cc(CN4CCCCC4C(=O)O)cnc23)cccc1-c1cccc2c1CCC2OCCN1CCOCC1 (stereo not shown) [Compound 56, 1-((8-((2-methyl-3-(1-(2-morpholinoethoxy)-2,3-dihydro-1H-inden-4-yl)phenyl)amino)-1,7-naphthyridin-3-yl)methyl)piperidine-2-carboxylic acid]
Cc1c(Nc2nccc3cc(CN4CCCCC4C(=O)O)cnc23)cccc1-c1ccc(C(F)(F)F)c(OCCCN2CCOCC2)c1 (stereo not shown) [Compound 60, 1-((8-((2-methyl-3′-(3-morpholinopropoxy)-4′-(trifluoromethyl)-[1,1′-biphenyl]-3-yl)amino)-1,7-naphthyridin-3-yl)methyl)piperidine-2-carboxylic acid]

IC50, 0.002 to 0.01 µM:
Cc1c(Nc2nccc3cc(CN4CCCCC4C(=O)O)cnc23)cccc1-c1cccc(OCC2(CN3CCOCC3)CC2)c1C (stereo not shown) [Compound 54, 1-((8-((2,2′-dimethyl-3′-((1-(morpholinomethyl)cyclopropyl)methoxy)-[1,1′-biphenyl]-3-yl)amino)-1,7-naphthyridin-3-yl)methyl)piperidine-2-carboxylic acid]
Cc1c(Nc2nccc3cc(CN4CCCCC4C(=O)O)cnc23)cccc1-c1cccc(OC(C)CCN2CCOCC2)c1C (stereo not shown) [Compound 55, 1-((8-((2,2′-dimethyl-3′-((4-morpholinobutan-2-yl)oxy)-[1,1′-biphenyl]-3-yl)amino)-1,7-naphthyridin-3-yl)methyl)piperidine-2-carboxylic acid]
Cc1c(/C=C/CCN2CCOCC2)cccc1-c1cccc(Nc2nccc3cc(CN4CCCCC4C(=O)O)cnc23)c1C (stereo not shown) [Compound 57, (E)-1-((8-((2,2′-dimethyl-3′-(4-morpholinobut-1-en-1-yl)-[1,1′-biphenyl]-3-yl)amino)-1,7-naphthyridin-3-yl)methyl)piperidine-2-carboxylic acid]
Cc1c(CCCCN2CCOCC2)cccc1-c1cccc(Nc2nccc3cc(CN4CCCCC4C(=O)O)cnc23)c1C (stereo not shown) [Compound 58, 1-((8-((2,2′-dimethyl-3′-(4-morpholinobutyl)-[1,1′-biphenyl]-3-yl)amino)-1,7-naphthyridin-3-yl)methyl)piperidine-2-carboxylic acid]
COc1ccc(-c2cccc(Nc3nccc4cc(CN5CCCCC5C(=O)O)cnc34)c2C)cc1OCCCN1CCOCC1 (stereo not shown) [Compound 59, 1-((8-((4′-methoxy-2-methyl-3′-(3-morpholinopropoxy)-[1,1′-biphenyl]-3-yl)amino)-1,7-naphthyridin-3-yl)methyl)piperidine-2-carboxylic acid]
